In ChEMBL document CHEMBL3872220, “Amphiphilic xanthones as a potent chemical entity of anti-mycobacterial agents with membrane-targeting properties” (Eur J Med Chem, 2016):
≈ marks a conversion by molar mass, not a printed value.

Columns and labels:
[1] = tested on: Mycobacterium tuberculosis variant bovis; assay: Antimycobacterial activity against Mycobacterium bovis BCG ATCC 35734 assessed as ATP leakage by measuring extracellular ATP at 0.5 times MIC measured at 3 hrs post dose by luciferase reporter gene assay; type: functional, Mycobacterium tuberculosis variant bovis BCG
[2] = tested on: Mycobacterium tuberculosis variant bovis; assay: Antimycobacterial activity against Mycobacterium bovis BCG ATCC 35734 assessed as ATP leakage by measuring extracellular ATP at 4 times MIC measured immediatey after addition of compounds by luciferase reporter gene assay; type: functional, Mycobacterium tuberculosis variant bovis BCG
[3] = tested on: Mycobacterium tuberculosis variant bovis; assay: Antimycobacterial activity against Mycobacterium bovis BCG ATCC 35734 assessed as ATP leakage by measuring intracellular ATP at 4 times MIC measured immediatey after addition of compounds by luciferase reporter gene assay; type: functional, Mycobacterium tuberculosis variant bovis BCG
[4] = tested on: Mycobacterium tuberculosis variant bovis; assay: Antimycobacterial activity against Mycobacterium bovis BCG ATCC 35734 assessed as ATP leakage by measuring extracellular ATP at 2 times MIC measured at 3 hrs post dose by luciferase reporter gene assay; type: functional, Mycobacterium tuberculosis variant bovis BCG
[5] = tested on: Mycobacterium tuberculosis variant bovis; assay: Antimycobacterial activity against Mycobacterium bovis BCG ATCC 35734 assessed as ATP leakage by measuring extracellular ATP at 0.5 times MIC measured at 1 hr post dose by luciferase reporter gene assay; type: functional, Mycobacterium tuberculosis variant bovis BCG
[6] = tested on: Mycobacterium tuberculosis variant bovis; assay: Antimycobacterial activity against Mycobacterium bovis BCG ATCC 35734 assessed as ATP leakage by measuring intracellular ATP at 0.5 times MIC measured at 9 hrs post dose by luciferase reporter gene assay; type: functional, Mycobacterium tuberculosis variant bovis BCG
[7] = tested on: Mycobacterium tuberculosis variant bovis; assay: Antimycobacterial activity against Mycobacterium bovis BCG ATCC 35734 assessed as ATP leakage by measuring intracellular ATP at 4 times MIC measured at 24 hrs post dose by luciferase reporter gene assay; type: functional, Mycobacterium tuberculosis variant bovis BCG
[8] = tested on: Mycobacterium tuberculosis variant bovis; assay: Antimycobacterial activity against Mycobacterium bovis BCG ATCC 35734 assessed as ATP leakage by measuring extracellular ATP at 4 times MIC measured at 24 hrs post dose by luciferase reporter gene assay; type: functional, Mycobacterium tuberculosis variant bovis BCG
[9] = tested on: Mycobacterium tuberculosis variant bovis; assay: Antimycobacterial activity against Mycobacterium bovis BCG ATCC 35734 assessed as ATP leakage by measuring extracellular ATP at 2 times MIC measured immediatey after addition of compounds by luciferase reporter gene assay; type: functional, Mycobacterium tuberculosis variant bovis BCG
[10] = tested on: Mycobacterium tuberculosis variant bovis; assay: Antimycobacterial activity against Mycobacterium bovis BCG ATCC 35734 assessed as ATP leakage by measuring extracellular ATP at 1 MIC measured at 1 hr post dose by luciferase reporter gene assay; type: functional, Mycobacterium tuberculosis variant bovis BCG
[11] = tested on: Mycobacterium tuberculosis variant bovis; assay: Antimycobacterial activity against Mycobacterium bovis BCG ATCC 35734 assessed as ATP leakage by measuring extracellular ATP at 1 MIC measured at 24 hrs post dose by luciferase reporter gene assay; type: functional, Mycobacterium tuberculosis variant bovis BCG
[12] = tested on: Mycobacterium tuberculosis variant bovis; assay: Antimycobacterial activity against Mycobacterium bovis BCG ATCC 35734 after 5 days by broth dilution assay; type: functional; settings: ATCC 35734, 120 h
[13] = tested on: Mycobacterium tuberculosis variant bovis; assay: Antimycobacterial activity against Mycobacterium bovis BCG ATCC 35734 assessed as ATP leakage by measuring intracellular ATP at 2 times MIC measured at 1 hr post dose by luciferase reporter gene assay; type: functional, Mycobacterium tuberculosis variant bovis BCG
[14] = tested on: Mycobacterium tuberculosis variant bovis; assay: Antimycobacterial activity against Mycobacterium bovis BCG ATCC 35734 assessed as ATP leakage by measuring extracellular ATP at 4 times MIC measured at 9 hrs post dose by luciferase reporter gene assay; type: functional, Mycobacterium tuberculosis variant bovis BCG
[15] = tested on: Mycobacterium tuberculosis variant bovis; assay: Antimycobacterial activity against Mycobacterium bovis BCG ATCC 35734 assessed as ATP leakage by measuring intracellular ATP at 1 MIC measured at 24 hrs post dose by luciferase reporter gene assay; type: functional, Mycobacterium tuberculosis variant bovis BCG
[16] = tested on: Mycobacterium tuberculosis variant bovis; assay: Antimycobacterial activity against Mycobacterium bovis BCG ATCC 35734 assessed as ATP leakage by measuring extracellular ATP at 0.5 times MIC measured immediatey after addition of compounds by luciferase reporter gene assay; type: functional, Mycobacterium tuberculosis variant bovis BCG
[17] = tested on: Mycobacterium tuberculosis variant bovis; assay: Antimycobacterial activity against Mycobacterium bovis BCG ATCC 35734 assessed as ATP leakage by measuring intracellular ATP at 4 times MIC measured at 3 hrs post dose by luciferase reporter gene assay; type: functional, Mycobacterium tuberculosis variant bovis BCG
[18] = tested on: Mycobacterium tuberculosis variant bovis; assay: Antimycobacterial activity against Mycobacterium bovis BCG ATCC 35734 assessed as ATP leakage by measuring intracellular ATP at 1 MIC measured at 9 hrs post dose by luciferase reporter gene assay; type: functional, Mycobacterium tuberculosis variant bovis BCG
[19] = tested on: Mycobacterium tuberculosis variant bovis; assay: Antimycobacterial activity against Mycobacterium bovis BCG ATCC 35734 assessed as ATP leakage by measuring extracellular ATP at 2 times MIC measured at 9 hrs post dose by luciferase reporter gene assay; type: functional, Mycobacterium tuberculosis variant bovis BCG
[20] = tested on: Mycobacterium tuberculosis variant bovis; assay: Antimycobacterial activity against Mycobacterium bovis BCG ATCC 35734 assessed as ATP leakage by measuring intracellular ATP at 0.5 times MIC measured immediatey after addition of compounds by luciferase reporter gene assay; type: functional, Mycobacterium tuberculosis variant bovis BCG
[21] = tested on: Mycobacterium tuberculosis variant bovis; assay: Antimycobacterial activity against Mycobacterium bovis BCG ATCC 35734 assessed as ATP leakage by measuring intracellular ATP at 2 times MIC measured at 24 hrs post dose by luciferase reporter gene assay; type: functional, Mycobacterium tuberculosis variant bovis BCG
[22] = tested on: Mycobacterium tuberculosis variant bovis; assay: Antimycobacterial activity against Mycobacterium bovis BCG ATCC 35734 assessed as ATP leakage by measuring intracellular ATP at 2 times MIC measured at 9 hrs post dose by luciferase reporter gene assay; type: functional, Mycobacterium tuberculosis variant bovis BCG
[23] = tested on: Mycobacterium tuberculosis variant bovis; assay: Antimycobacterial activity against Mycobacterium bovis BCG ATCC 35734 assessed as ATP leakage by measuring intracellular ATP at 1 MIC measured at 6 hrs post dose by luciferase reporter gene assay; type: functional, Mycobacterium tuberculosis variant bovis BCG
[24] = tested on: Mycobacterium tuberculosis variant bovis; assay: Antimycobacterial activity against Mycobacterium bovis BCG ATCC 35734 assessed as ATP leakage by measuring intracellular ATP at 0.5 times MIC measured at 6 hrs post dose by luciferase reporter gene assay; type: functional, Mycobacterium tuberculosis variant bovis BCG
[25] = tested on: Mycobacterium tuberculosis variant bovis; assay: Induction of membrane integrity impairment in Mycobacterium bovis BCG ATCC 35734 assessed as pH shift at 60 uM measured after 3 hrs by CMFDA dye based fluorescence spectroscopic method relative to control; type: functional, Mycobacterium tuberculosis variant bovis BCG
[26] = tested on: Mycobacterium tuberculosis variant bovis; assay: Antimycobacterial activity against Mycobacterium bovis BCG ATCC 35734 assessed as ATP leakage by measuring extracellular ATP at 4 times MIC measured at 3 hrs post dose by luciferase reporter gene assay; type: functional, Mycobacterium tuberculosis variant bovis BCG
[27] = tested on: Mycobacterium tuberculosis variant bovis; assay: Antimycobacterial activity against Mycobacterium bovis BCG ATCC 35734 assessed as ATP leakage by measuring extracellular ATP at 1 MIC measured at 9 hrs post dose by luciferase reporter gene assay; type: functional, Mycobacterium tuberculosis variant bovis BCG
[28] = tested on: Mycobacterium tuberculosis variant bovis; assay: Antimycobacterial activity against Mycobacterium bovis BCG ATCC 35734 assessed as ATP leakage by measuring intracellular ATP at 4 times MIC measured at 1 hr post dose by luciferase reporter gene assay; type: functional, Mycobacterium tuberculosis variant bovis BCG
[29] = tested on: Mycobacterium tuberculosis variant bovis; assay: Antimycobacterial activity against Mycobacterium bovis BCG ATCC 35734 assessed as ATP leakage by measuring intracellular ATP at 0.5 times MIC measured at 3 hrs post dose by luciferase reporter gene assay; type: functional, Mycobacterium tuberculosis variant bovis BCG
[30] = tested on: Mycobacterium tuberculosis variant bovis; assay: Antimycobacterial activity against Mycobacterium bovis BCG ATCC 35734 assessed as ATP leakage by measuring intracellular ATP at 0.5 times MIC measured at 1 hr post dose by luciferase reporter gene assay; type: functional, Mycobacterium tuberculosis variant bovis BCG
[31] = tested on: Mycobacterium tuberculosis variant bovis; assay: Antimycobacterial activity against Mycobacterium bovis BCG ATCC 35734 assessed as ATP leakage by measuring extracellular ATP at 2 times MIC measured at 24 hrs post dose by luciferase reporter gene assay; type: functional, Mycobacterium tuberculosis variant bovis BCG
[32] = tested on: Mycobacterium tuberculosis variant bovis; assay: Antimycobacterial activity against Mycobacterium bovis BCG ATCC 35734 assessed as ATP leakage by measuring extracellular ATP at 0.5 times MIC measured at 6 hrs post dose by luciferase reporter gene assay; type: functional, Mycobacterium tuberculosis variant bovis BCG

Row | Compound | Activity [1] [%] | Activity [2] [%] | Activity [3] [%] | Activity [4] [%] | Activity [5] [%] | Activity [6] [%] | Activity [7] [%] | Activity [8] [%] | Activity [9] [%] | Activity [10] [%] | Activity [11] [%] | MIC90 [12] [µM] | Activity [13] [%] | Activity [14] [%] | Activity [15] [%] | Activity [16] [%] | Activity [17] [%] | Activity [18] [%] | Activity [19] [%] | Activity [20] [%] | other results
1 | COc1c(OCCCCN2CCOCC2)cc2oc3cc(OCCCCN4CCOCC4)c(CC=C(C)C)c(O)c3c(=O)c2c1CC=C(C)C | 8.6 | 14.3 | 85.7 | 20 | 20.2 | 92.7 | 31.5 | 68.5 | 8.1 | 11.5 | 4.5 | 30 (≈ 20.8 µg/mL) | 83.3 | 58.4 | 95.5 | 0 | 66.6 | 86.5 | 33.1 | 100 | Activity [21]: 49.8%; Activity [22]: 66.9%; Activity [23]: 85.6%; Activity [24]: 91.4%; Activity [25]: 30%; Activity [26]: 33.4%; Activity [27]: 13.5%; Activity [28]: 74.6%; Activity [29]: 91.4%; Activity [30]: 79.8%; Activity [31]: 50.2%; Activity [32]: 8.6%
2 | CCCN(CCC)CCCCOc1cc2oc3cc(OCCCCN(CCC)CCC)c(OC)c(CC=C(C)C)c3c(=O)c2c(O)c1CC=C(C)C | 20.1 | 9.4 | 90.6 | 44.2 | 25.1 | 74.6 | 14.8 | 85.2 | 2.2 | 13.2 | 37.5 | 3.2 (≈ 2.31 µg/mL) | 89.9 | 84 | 62.5 | 0 | 57.9 | 51.5 | 75.3 | 100 | Activity [21]: 29.5%; Activity [22]: 24.7%; Activity [23]: 69.6%; Activity [24]: 72%; Activity [25]: 61.6%; Activity [26]: 42.1%; Activity [27]: 48.5%; Activity [28]: 83.2%; Activity [29]: 79.9%; Activity [30]: 74.9%; Activity [31]: 70.5%; Activity [32]: 28%
3 | CCN(CC)CCCCOc1cc2oc3cc(OCCCCN(CC)CC)c(OC)c(CC=C(C)C)c3c(=O)c2c(O)c1CC=C(C)C | 27.4 | 10.5 | 89.5 | 83.6 | 20.8 | 52.8 | 6.8 | 93.2 | 3.6 | 24.9 | 86.4 | 6.4 (≈ 4.26 µg/mL) | 57.6 | 94.5 | 13.6 | 0 | 10.4 | 14.7 | 92.8 | 100 | Activity [21]: 5.9%; Activity [22]: 7.2%; Activity [23]: 29.3%; Activity [24]: 77.1%; Activity [25]: 68.7%; Activity [26]: 89.6%; Activity [27]: 85.3%; Activity [28]: 34%; Activity [29]: 72.6%; Activity [30]: 79.2%; Activity [31]: 94.1%; Activity [32]: 22.9%
